Test results reported in the NIST ThermoML archive (doi:10.1021/acs.jced.6b00396).

Assay: xn = mol fraction of the nth substance listed
Conditions: Gas, isochoric method

F/C=C(\F)C(F)(F)F [(Z)-1,2,3,3,3-pentafluoro-1-propene] + CCC
Conditions	specific volume [m3/kg]
303.15 K, 459.8 kPa, x2 = 0.855	0.09
303.15 K, 722.5 kPa, x2 = 0.593	0.038
308.15 K, 412.6 kPa, x2 = 0.516	0.067
308.15 K, 468.5 kPa, x2 = 0.855	0.09
308.15 K, 491.5 kPa, x2 = 0.225	0.042
308.15 K, 738.6 kPa, x2 = 0.593	0.038
308.15 K, 946.2 kPa, x2 = 0.69	0.032
313.15 K, 420.3 kPa, x2 = 0.516	0.067
313.15 K, 477.3 kPa, x2 = 0.855	0.09
313.15 K, 501.4 kPa, x2 = 0.225	0.042
313.15 K, 754.6 kPa, x2 = 0.593	0.038
313.15 K, 968.3 kPa, x2 = 0.69	0.032
318.15 K, 428 kPa, x2 = 0.516	0.067
318.15 K, 486 kPa, x2 = 0.855	0.09
318.15 K, 511.5 kPa, x2 = 0.225	0.042
318.15 K, 770.3 kPa, x2 = 0.593	0.038
318.15 K, 990.1 kPa, x2 = 0.69	0.032
323.15 K, 435.7 kPa, x2 = 0.516	0.067
323.15 K, 494.7 kPa, x2 = 0.855	0.09
323.15 K, 521.2 kPa, x2 = 0.225	0.042
323.15 K, 786.1 kPa, x2 = 0.593	0.038
323.15 K, 1011.5 kPa, x2 = 0.69	0.032
328.15 K, 443.4 kPa, x2 = 0.516	0.067
328.15 K, 503.4 kPa, x2 = 0.855	0.09
328.15 K, 531.1 kPa, x2 = 0.225	0.042
328.15 K, 801.7 kPa, x2 = 0.593	0.038
328.15 K, 1033 kPa, x2 = 0.69	0.032
333.15 K, 451 kPa, x2 = 0.516	0.067
333.15 K, 512.1 kPa, x2 = 0.855	0.09
333.15 K, 540.8 kPa, x2 = 0.225	0.042
333.15 K, 817.3 kPa, x2 = 0.593	0.038
333.15 K, 1054.4 kPa, x2 = 0.69	0.032
338.15 K, 458.7 kPa, x2 = 0.516	0.067
338.15 K, 520.9 kPa, x2 = 0.855	0.09
338.15 K, 550.6 kPa, x2 = 0.225	0.042
338.15 K, 832.7 kPa, x2 = 0.593	0.038
338.15 K, 1075.7 kPa, x2 = 0.69	0.032
343.15 K, 466.6 kPa, x2 = 0.516	0.067
343.15 K, 529.5 kPa, x2 = 0.855	0.09
343.15 K, 560.3 kPa, x2 = 0.225	0.042
343.15 K, 848.1 kPa, x2 = 0.593	0.038
343.15 K, 1096.9 kPa, x2 = 0.69	0.032
348.15 K, 474.1 kPa, x2 = 0.516	0.067
348.15 K, 538.1 kPa, x2 = 0.855	0.09
348.15 K, 570 kPa, x2 = 0.225	0.042
348.15 K, 863.4 kPa, x2 = 0.593	0.038
348.15 K, 1118 kPa, x2 = 0.69	0.032
353.15 K, 481.7 kPa, x2 = 0.516	0.067
353.15 K, 546.7 kPa, x2 = 0.855	0.09
353.15 K, 580.1 kPa, x2 = 0.225	0.042
353.15 K, 878.7 kPa, x2 = 0.593	0.038
353.15 K, 1139.2 kPa, x2 = 0.69	0.032
358.15 K, 489.3 kPa, x2 = 0.516	0.067
358.15 K, 555.3 kPa, x2 = 0.855	0.09
358.15 K, 589.7 kPa, x2 = 0.225	0.042
358.15 K, 893.9 kPa, x2 = 0.593	0.038
358.15 K, 1160 kPa, x2 = 0.69	0.032
363.15 K, 496.8 kPa, x2 = 0.516	0.067
363.15 K, 563.9 kPa, x2 = 0.855	0.09
363.15 K, 909 kPa, x2 = 0.593	0.038
363.15 K, 1180.9 kPa, x2 = 0.69	0.032
363.16 K, 599.3 kPa, x2 = 0.225	0.042
